Results taken from patent US7705016B2, “Regulation of food intake by modulation of long-chain fatty acyl-CoA levels in the hypothalamus” (Albert Einstein College of Medicine of Yeshiva University, priority 2003, dated 2010).

Assays:
[1] = test system: Glc-6-Pase mRNA; assay: Hepatic Glc-6-Pase mRNA after ICV OA (northern blot); format: in vivo, rat
Method: Northern Blot Analysis. Total RNA was isolated from hypothalami and liver with Trizol (Invitrogen Corp., California, USA). NPY, Glc-6-Pase or PEPCK expression was measured by northern blot analysis. Hypothalamic RNA was analyzed using probes for prepro-NPY and β-actin. To assess the effect of ICV OA on the expression of hepatic enzymes, total RNA was isolated from freeze-clamped liver tissues from rats subjected to insulin clamp studies. Glc-6-Pase and PEPCK cDNA were obtained as previously described (Combs et al., 2001; Massillon et al., 1996; 1998). Probes were labeled with [α-^32P] dCTP using a random primer kit (Stratagene). Quantification was performed by scanning densitometry, normalizing for β-actin signal and 18S ribosomal RNA to correct for loading variabilities. Effect of ICV OA on the hepatic expression of Glc-6-Pase and PEPCK. The potent effects of the central administration of OA on hepatic glucose fluxes prompted us to examine whether changes in the liver mRNA levels of key metabolic enzymes can partly account for these effects. Thus, we next measured the liver abundance of Glc-6-Pase and PEPCK mRNA as a function of 18S ribosomal RNA (FIG. 9d) or β-actin mRNA (not shown) in tissue samples obtained after ICV infusion of either OA or vehicle in caloric restricted and over-fed rats. […]

[2] = test system: CPT1M mRNA; assay: CPT1M mRNA in hypothalamic nuclei micro punches by real-time PCR after ICV injection; format: in vivo, rat; settings: 3 days after ICV injection
Method: Surgical implantation of ICV cannulae was performed on day 1 (˜3 weeks prior to the in vivo study). Full recovery of body weight and food intake was achieved by day 7. Rats randomized for ribozyme treatment received an ICV injection of CPT1L-Ribo, CPT inhibitors or controls on day 17. The experimental group treated with TDGA received ICV injection of the inhibitor on day 21, 6 hr prior to the harvesting of brains. Panels B. and C. show quantitation of CPT1L (B) and CPT1M (C) mRNA by real-time PCR. RNA was purified from individual hypothalamic nuclei (PVN, LHA, and arcuate), which were obtained by micro punch technique 3 days after ICV injection of pTarget control (▪; N=4) or CPT1LRibo (□; N=5). […] CPT1 activity was measured in the particulate fraction of protein extracts from animals treated with ICV control injections (▪; N=6, receiving aCSF+2% DMSO or Control Ribo), TDGA ( ?; N=6), or CPTL-Ribo (□; N=5). […] Levels of stearoyl-CoA (F) and oleyl-CoA (E) respectively were measured by HPLC in arcuate of rats injected ICV with control compound (▪; ST1340) or ST1326 (□).
ICV catheters were implanted in male Sprague-Dawley rats by stereotaxic surgery (Obici et al., 2002a; Obici et al., 2001; Liu et al., 1998). […] Thus, we next measured CPT1 activity in ARC and in whole hypothalamus. […]
Quantitation of CPT1 and neuropeptides mRNA by Northern and real-time PCR. […]

| Compound | suppression of hepatic Glc-6-Pase mRNA expression ([1]; HF55 group, ICV OA vs ICV vehicle) [%] | hepatic Glc-6-Pase mRNA expression ([1]; HF140 group) | CPT1M mRNA expression in hypothalamic nuclei [2] |
| --- | --- | --- | --- |
| CCCCCCCC/C=C\CCCCCCCC(=O)O [OA, oleic acid] | ~73 | no changes detected |  |
| CPT1L-Ribo: plasmid (pTarget, CMV promoter) expressing a hammerhead ribozyme that specifically cleaves rat CPT1L mRNA, complexed to PEI for ICV injection (DNA CUGUACCAAAGAGCUGUAGAGUCCGUGAGGACGAAACGCCGCUCACAAUG) |  |  | not appreciably altered |
